Data: paper PMC5746514 (The Korean Journal of Physiology & Pharmacology : …, 2017)

Target: T1, Kv3.1 potassium channel (Kv3.1b) (Rattus norvegicus, UniProt P25122)
T1 sequence (P25122 1-585): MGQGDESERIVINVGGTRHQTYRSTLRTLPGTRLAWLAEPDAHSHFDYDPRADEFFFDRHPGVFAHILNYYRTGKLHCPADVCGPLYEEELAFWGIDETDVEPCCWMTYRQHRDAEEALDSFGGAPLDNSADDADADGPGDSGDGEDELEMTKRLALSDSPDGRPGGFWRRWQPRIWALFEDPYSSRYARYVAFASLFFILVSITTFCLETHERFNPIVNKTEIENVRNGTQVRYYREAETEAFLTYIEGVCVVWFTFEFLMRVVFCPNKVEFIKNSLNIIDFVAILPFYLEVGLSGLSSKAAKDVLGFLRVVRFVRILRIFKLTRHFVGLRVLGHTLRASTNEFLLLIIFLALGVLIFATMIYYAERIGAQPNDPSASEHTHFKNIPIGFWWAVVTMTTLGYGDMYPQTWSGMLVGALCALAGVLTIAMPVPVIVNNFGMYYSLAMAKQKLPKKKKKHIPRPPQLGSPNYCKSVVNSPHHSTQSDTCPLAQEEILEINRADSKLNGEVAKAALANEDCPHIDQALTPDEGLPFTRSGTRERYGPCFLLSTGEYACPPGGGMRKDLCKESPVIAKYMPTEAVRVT
Assay: whole-cell patch clamp of transfected CHO cells
Format: cell-based

`Fc1ccc([C@@H]2CCNC[C@H]2COc2ccc3c(c2)OCO3)cc1` [paroxetine] was tested, and the IC50 was 9.43 µM.
